# Test results: patent publication US6472213B1, “Shuttle vectors for the introduction of DNA into mycobacteria and utilization of such bacteria as vaccines” (Institut National de la Sante et de la Recherche Medicale …, priority 1994, dated 2002)
# Key:
# [1] = system: non-transformed control mycobacteria; type: cell-based, M. smegmatis, M. bovis BCG, M. tuberculosis
# [2] = system: mycobacteria carrying the plasmid pMR001; type: cell-based, M. smegmatis, M. bovis BCG, M. tuberculosis
# [3] = system: pVN2-carrying mycobacteria; type: cell-based, M. smegmatis, M. bovis BCG, M. tuberculosis
# [4] = system: Mycobacterium smegmatis carrying plasmid pVN3; assay: Resistance to arsenic conferred by plasmid pVN3; type: cell-based; settings: pVN3 in Mycobacterium smegmatis
Molecule,MIC Liquid medium [1],MIC Solid medium [1],concentration at which considerable susceptibility is shown [1],concentration of complete inhibition of bacterial growth (MIC) [1],MIC Liquid medium [2],MIC Solid medium [2],concentration at which still capable of growing [2],concentration of complete inhibition of bacterial growth [2],MIC Liquid medium [3],MIC Solid medium [3],concentration up to which growth occurs [3],resistance level [4]
[Cl][Hg][Cl] [HgCl2],1.25 µg/mL,0.15 µg/mL,0.15 µg/mL,1 µg/mL,40 µg/mL,160 µg/mL,20 µg/mL,160 µg/mL,40 µg/mL,160 µg/mL,≤ 40 µg/mL,
arsenic nitrate [AsNO3],,,,,,,,,,,,~10 mg/L
